Article PMC10599993, “The PTPN2/PTPN1 inhibitor ABBV-CLS-484 unleashes potent anti-tumour immunity” (Nature, 2023)

Assays:
Experiment in all cases: biochemical
Parameters in all cases: Kinase selectivity panel, IC50 of AC484 (Supplementary Table 1)
PKCbeta1 = molecular target: T1, PKCbeta1 (Homo sapiens, UniProt P05771)
T1 construct: gene PRKCB; isoform beta1

MAP4K2 = MAP4K2 (Homo sapiens, UniProt Q12851)
PKC alpha-UBI = molecular target: T2, PKC alpha-UBI (Homo sapiens, UniProt P17252)
T2 construct: gene PRKCA

TrkC = molecular target: T3, TrkC (Homo sapiens, UniProt Q16288)
T3 construct: gene NTRK3

Zap70 = Zap70 (Homo sapiens, UniProt P43403)
PDGFRB = PDGFRB (Homo sapiens, UniProt P09619)
MERTK = MERTK (Homo sapiens, UniProt Q12866)
Dyrk1A = Dyrk1A (Homo sapiens, UniProt Q13627)
PKCbeta2 = molecular target: T4, PKCbeta2 (Homo sapiens, UniProt P05771)
T4 construct: gene PRKCB; isoform beta2

RIPK2 = RIPK2 (Homo sapiens, UniProt O43353)
MST1 = molecular target: T5, MST1 (Homo sapiens, UniProt Q13043)
T5 construct: gene STK4

ACVR1 = ACVR1 (Homo sapiens, UniProt Q04771)
Lck = Lck (Homo sapiens, UniProt P06239)
CSF1R = CSF1R (Homo sapiens, UniProt P07333)
TAOK2 = TAOK2 (Homo sapiens, UniProt Q9UL54)
IRAK4 = IRAK4 (Homo sapiens, UniProt Q9NWZ3)
MINK1 = MINK1 (Homo sapiens, UniProt Q8N4C8)
CSK = CSK (Homo sapiens, UniProt P41240)
MAP4K1 = MAP4K1 (Homo sapiens, UniProt Q92918)
GRK5 = GRK5 (Homo sapiens, UniProt P34947)
FAK = molecular target: T6, FAK (Homo sapiens, UniProt Q05397)
T6 construct: gene PTK2

PKCzeta = molecular target: T7, PKCzeta (Homo sapiens, UniProt Q05513)
T7 construct: gene PRKCZ

MAP2K3 = MAP2K3 (Homo sapiens, UniProt P46734)
FGR = FGR (Homo sapiens, UniProt P09769)
CDK9/Cyclin K = CDK9/Cyclin K (Homo sapiens, UniProt P50750)
Rsk2 = molecular target: T8, Rsk2 (Homo sapiens, UniProt P51812)
T8 construct: gene RPS6KA3

SGK1 = SGK1 (Homo sapiens, UniProt O00141)
Akt1 = Akt1 (Homo sapiens, UniProt P31749)

Measured: IC50

T6 sequence (Q05397 whole entry): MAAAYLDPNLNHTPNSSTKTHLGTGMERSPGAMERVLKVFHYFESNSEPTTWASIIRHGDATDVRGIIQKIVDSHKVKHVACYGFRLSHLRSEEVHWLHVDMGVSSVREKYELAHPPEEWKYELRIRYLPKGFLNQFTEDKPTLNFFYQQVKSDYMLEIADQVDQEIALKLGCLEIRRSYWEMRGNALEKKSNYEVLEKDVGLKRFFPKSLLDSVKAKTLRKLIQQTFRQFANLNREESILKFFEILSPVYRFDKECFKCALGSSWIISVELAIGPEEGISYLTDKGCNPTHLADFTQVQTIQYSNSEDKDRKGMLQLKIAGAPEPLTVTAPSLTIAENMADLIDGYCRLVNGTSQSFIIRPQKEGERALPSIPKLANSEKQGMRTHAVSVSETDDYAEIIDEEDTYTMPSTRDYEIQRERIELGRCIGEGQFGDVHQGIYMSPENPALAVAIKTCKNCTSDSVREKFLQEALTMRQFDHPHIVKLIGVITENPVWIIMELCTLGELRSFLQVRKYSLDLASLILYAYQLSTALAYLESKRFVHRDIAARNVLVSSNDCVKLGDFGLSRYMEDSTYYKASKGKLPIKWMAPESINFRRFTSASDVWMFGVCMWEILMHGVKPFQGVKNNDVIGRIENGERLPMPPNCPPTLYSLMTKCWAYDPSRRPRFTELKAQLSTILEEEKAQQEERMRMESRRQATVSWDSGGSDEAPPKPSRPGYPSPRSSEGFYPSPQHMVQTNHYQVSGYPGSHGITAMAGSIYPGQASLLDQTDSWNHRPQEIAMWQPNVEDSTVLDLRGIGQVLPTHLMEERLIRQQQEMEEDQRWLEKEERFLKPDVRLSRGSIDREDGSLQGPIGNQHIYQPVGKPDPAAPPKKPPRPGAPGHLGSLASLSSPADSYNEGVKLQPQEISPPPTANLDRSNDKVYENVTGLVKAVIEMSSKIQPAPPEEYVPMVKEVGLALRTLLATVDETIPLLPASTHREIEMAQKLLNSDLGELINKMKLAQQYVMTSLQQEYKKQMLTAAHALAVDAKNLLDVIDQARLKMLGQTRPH
Sequence of FGR (P09769 whole entry): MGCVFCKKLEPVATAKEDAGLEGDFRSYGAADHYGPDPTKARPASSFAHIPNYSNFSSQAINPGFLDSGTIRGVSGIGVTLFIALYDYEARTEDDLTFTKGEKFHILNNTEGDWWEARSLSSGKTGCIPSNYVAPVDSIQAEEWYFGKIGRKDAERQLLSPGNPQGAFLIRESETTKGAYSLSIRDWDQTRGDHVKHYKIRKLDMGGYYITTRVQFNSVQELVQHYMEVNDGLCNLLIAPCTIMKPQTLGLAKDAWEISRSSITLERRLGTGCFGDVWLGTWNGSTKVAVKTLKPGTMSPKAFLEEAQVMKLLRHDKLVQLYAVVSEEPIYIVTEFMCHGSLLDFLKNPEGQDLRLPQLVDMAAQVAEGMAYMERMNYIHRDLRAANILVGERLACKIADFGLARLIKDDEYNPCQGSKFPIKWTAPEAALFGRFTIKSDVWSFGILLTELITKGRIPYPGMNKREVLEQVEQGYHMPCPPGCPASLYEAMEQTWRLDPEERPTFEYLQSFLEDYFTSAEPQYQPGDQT
Sequence of CSF1R (P07333 whole entry): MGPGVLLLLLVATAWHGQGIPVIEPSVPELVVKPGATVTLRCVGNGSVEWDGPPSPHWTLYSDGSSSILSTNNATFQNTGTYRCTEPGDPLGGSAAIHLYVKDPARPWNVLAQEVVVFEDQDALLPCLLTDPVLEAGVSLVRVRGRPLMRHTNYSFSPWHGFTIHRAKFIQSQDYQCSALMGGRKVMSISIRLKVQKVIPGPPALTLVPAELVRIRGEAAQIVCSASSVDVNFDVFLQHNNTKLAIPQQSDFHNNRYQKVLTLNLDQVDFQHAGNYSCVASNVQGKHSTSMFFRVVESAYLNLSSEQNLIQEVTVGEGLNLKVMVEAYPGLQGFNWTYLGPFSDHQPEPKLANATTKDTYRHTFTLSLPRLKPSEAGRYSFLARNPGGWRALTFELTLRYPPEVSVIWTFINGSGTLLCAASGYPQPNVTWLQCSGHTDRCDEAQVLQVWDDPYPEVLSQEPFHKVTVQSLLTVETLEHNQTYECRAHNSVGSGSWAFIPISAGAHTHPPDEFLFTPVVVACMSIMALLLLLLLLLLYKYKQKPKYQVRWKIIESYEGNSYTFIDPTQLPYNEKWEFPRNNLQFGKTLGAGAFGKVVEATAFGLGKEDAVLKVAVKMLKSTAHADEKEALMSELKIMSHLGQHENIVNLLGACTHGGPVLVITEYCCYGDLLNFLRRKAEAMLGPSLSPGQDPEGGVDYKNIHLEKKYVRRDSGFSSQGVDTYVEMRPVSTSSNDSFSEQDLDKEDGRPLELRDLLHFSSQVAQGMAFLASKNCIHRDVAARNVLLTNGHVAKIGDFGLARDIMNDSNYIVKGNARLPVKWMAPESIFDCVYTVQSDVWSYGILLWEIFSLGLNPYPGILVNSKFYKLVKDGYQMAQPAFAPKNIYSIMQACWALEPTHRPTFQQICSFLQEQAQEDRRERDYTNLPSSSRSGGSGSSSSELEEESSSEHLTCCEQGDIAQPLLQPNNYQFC
Sequence of MERTK (Q12866 whole entry): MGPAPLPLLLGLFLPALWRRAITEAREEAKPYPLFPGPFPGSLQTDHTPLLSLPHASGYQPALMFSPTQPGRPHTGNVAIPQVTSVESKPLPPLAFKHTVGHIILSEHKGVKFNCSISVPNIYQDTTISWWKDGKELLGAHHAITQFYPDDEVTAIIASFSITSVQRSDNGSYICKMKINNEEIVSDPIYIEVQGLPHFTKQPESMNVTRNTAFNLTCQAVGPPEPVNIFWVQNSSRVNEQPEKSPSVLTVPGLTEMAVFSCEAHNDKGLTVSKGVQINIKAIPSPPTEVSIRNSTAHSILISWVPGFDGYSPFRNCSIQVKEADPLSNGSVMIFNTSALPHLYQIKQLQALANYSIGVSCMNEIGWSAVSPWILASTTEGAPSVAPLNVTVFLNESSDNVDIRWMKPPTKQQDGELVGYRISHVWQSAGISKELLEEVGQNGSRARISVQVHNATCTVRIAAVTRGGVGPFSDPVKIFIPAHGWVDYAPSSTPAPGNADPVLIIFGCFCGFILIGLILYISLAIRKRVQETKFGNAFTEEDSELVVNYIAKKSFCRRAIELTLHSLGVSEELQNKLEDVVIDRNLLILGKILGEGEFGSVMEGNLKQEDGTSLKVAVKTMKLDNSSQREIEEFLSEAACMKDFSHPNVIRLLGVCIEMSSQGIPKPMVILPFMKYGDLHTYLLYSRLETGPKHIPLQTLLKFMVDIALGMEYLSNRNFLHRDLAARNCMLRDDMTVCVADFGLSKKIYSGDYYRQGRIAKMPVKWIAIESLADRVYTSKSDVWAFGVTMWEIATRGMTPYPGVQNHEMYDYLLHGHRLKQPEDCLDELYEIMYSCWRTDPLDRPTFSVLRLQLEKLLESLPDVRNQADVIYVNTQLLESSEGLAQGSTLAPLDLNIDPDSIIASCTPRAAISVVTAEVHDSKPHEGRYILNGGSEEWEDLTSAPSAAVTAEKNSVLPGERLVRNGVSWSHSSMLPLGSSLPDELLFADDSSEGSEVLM
T7 sequence (Q05513 whole entry): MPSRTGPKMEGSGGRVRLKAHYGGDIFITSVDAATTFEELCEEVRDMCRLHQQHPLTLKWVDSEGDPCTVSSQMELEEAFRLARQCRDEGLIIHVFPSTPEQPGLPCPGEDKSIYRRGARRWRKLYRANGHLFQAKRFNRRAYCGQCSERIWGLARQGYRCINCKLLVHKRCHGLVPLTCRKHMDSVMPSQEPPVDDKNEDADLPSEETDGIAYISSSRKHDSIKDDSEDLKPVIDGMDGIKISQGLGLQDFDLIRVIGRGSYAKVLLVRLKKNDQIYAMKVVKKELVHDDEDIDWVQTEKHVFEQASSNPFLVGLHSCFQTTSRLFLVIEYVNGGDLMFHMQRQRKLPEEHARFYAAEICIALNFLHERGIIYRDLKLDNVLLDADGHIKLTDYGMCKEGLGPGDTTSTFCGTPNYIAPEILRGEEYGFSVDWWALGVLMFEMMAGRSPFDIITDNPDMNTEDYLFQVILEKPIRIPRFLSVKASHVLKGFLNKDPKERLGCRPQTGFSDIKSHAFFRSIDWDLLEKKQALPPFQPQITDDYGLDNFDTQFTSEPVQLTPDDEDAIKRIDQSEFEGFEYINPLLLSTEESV
Sequence of Zap70 (P43403 whole entry): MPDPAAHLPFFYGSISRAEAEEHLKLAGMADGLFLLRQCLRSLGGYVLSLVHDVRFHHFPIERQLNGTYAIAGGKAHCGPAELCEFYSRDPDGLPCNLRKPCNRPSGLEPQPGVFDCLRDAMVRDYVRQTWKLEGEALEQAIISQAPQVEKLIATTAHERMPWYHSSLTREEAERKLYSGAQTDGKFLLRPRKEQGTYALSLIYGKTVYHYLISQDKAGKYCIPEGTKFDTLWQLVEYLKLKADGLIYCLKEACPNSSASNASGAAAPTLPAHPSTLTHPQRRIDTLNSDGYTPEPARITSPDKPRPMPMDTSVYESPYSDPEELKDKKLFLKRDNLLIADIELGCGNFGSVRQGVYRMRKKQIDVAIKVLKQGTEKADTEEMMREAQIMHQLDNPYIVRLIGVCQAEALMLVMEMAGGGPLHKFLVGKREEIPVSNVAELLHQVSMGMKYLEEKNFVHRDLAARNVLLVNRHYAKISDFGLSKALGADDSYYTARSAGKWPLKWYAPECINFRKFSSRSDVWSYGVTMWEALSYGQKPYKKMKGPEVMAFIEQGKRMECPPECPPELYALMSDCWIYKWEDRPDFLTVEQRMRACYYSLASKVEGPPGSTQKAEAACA

CC(C)CCN[C@@H]1CCc2cc(O)c(N3CC(=O)NS3(=O)=O)c(F)c2C1 [AC484, ABBV-CLS-484]
> 10 µM: all assays above
